Experimental data reported in PubChem BioAssay AID330 (DTP/NCI, 2004).
“And” between values parts separate entries of the source, which are not always exact repeats. Identical values can stand only once. Inconclusive results and toxic doses are left out. The calls were made as follows: active = survival T/C of 150% or more; inactive = T/C below 125% in these data. Peptide text beside a SMILES is read from it. * marks the point of attachment. Cbz = O=C(OCc1ccccc1)*; OBn = c1ccc(CO*)cc1

Test system: P388 leukemia ip, CD2F1 mice, survival T/C
Assay: NCI In Vivo Anticancer Drug Screen. Data for tumor model P388 Leukemia (intraperitoneal) in CD2F1 (CDF1) mice
Settings: endpoint: median survival time, higher = longer survival
Summary of the method: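 Mice carrying the transplanted tumor received test compound or vehicle. Survival was recorded in each group, and the value is the treated-group measurement divided by that of the vehicle-treated control group.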

[1] = dose: 25.0 mg/kg/injection, schedule: Q01DX009 (ip), vehicle: Klucel (hydroxypropylcellulose) (HPC)
[2] = dose: 60.0 mg/kg/injection, schedule: Q01DX005 (ip), vehicle: saline with Tween-80
[3] = dose: 120.0 mg/kg/injection, schedule: Q01DX005 (ip), vehicle: saline with Tween-80
[4] = dose: 240.0 mg/kg/injection, schedule: Q01DX005 (ip), vehicle: saline with Tween-80
[5] = dose: 50.0 mg/kg/injection, schedule: Q01DX005 (ip), vehicle: saline with Tween-80
[6] = dose: 200.0 mg/kg/injection, schedule: Q01DX005 (ip), vehicle: saline with Tween-80
[7] = dose: 100.0 mg/kg/injection, schedule: Q04DX002 (ip), vehicle: saline with Tween-80
[8] = dose: 200.0 mg/kg/injection, schedule: Q04DX002 (ip), vehicle: saline with Tween-80
[9] = dose: 50.0 mg/kg/injection, schedule: Q01DX009 (ip), vehicle: Klucel (hydroxypropylcellulose) (HPC)
[10] = dose: 100.0 mg/kg/injection, schedule: Q01DX009 (ip), vehicle: Klucel (hydroxypropylcellulose) (HPC)
[11] = dose: 200.0 mg/kg/injection, schedule: Q01DX009 (ip), vehicle: Klucel (hydroxypropylcellulose) (HPC)
[12] = dose: 400.0 mg/kg/injection, schedule: Q01DX009 (ip), vehicle: Klucel (hydroxypropylcellulose) (HPC)
[13] = dose: 50.0 mg/kg/injection, schedule: Q01DX009 (ip), vehicle: saline with Tween-80
[14] = dose: 100.0 mg/kg/injection, schedule: Q01DX009 (ip), vehicle: saline with Tween-80
[15] = dose: 200.0 mg/kg/injection, schedule: Q01DX009 (ip), vehicle: saline with Tween-80
[16] = dose: 7.5 mg/kg/injection, schedule: Q01DX005 (ip), vehicle: saline with Tween-80
[17] = dose: 15.0 mg/kg/injection, schedule: Q01DX005 (ip), vehicle: saline with Tween-80
[18] = dose: 400.0 mg/kg/injection, schedule: Q04DX002 (ip), vehicle: saline with Tween-80

Measured: T/C

O=[As](O)(O)c1ccc(Nc2nc(Cl)nc(Cl)n2)cc1
inactive: dose: 12.5 mg/kg/injection, schedule: Q01DX009 (ip), vehicle: Klucel (hydroxypropylcellulose) (HPC) 96 % of control | [1] 104 % of control

NC(=O)c1cc2c(oc1=O)-c1ccccc1OC2
inactive: [2] 98 % of control | [3] 95 % of control | [4] 95 % of control

CCN(CC)CCNC(=O)Cc1cccc2c(=O)cc(-c3ccccc3)oc12
inactive: dose: 50.0 mg/kg/injection, schedule: Q01DX009 (ip), vehicle: saline 108 % of control | dose: 100.0 mg/kg/injection, schedule: Q01DX009 (ip), vehicle: saline 99 % of control | dose: 200.0 mg/kg/injection, schedule: Q01DX009 (ip), vehicle: saline 97 % of control

CCCCC1(Cc2ccccc2)SC(=O)NC1=O (centres undefined)
inactive: [5] 98 % of control | dose: 100.0 mg/kg/injection, schedule: Q01DX005 (ip), vehicle: saline with Tween-80 100 % of control | [6] 91 % of control

CC(C)CC(Nc1ncnc2c1CCc1ccccc1-2)C(=O)O (centres undefined)
inactive: dose: 50.0 mg/kg/injection, schedule: Q04DX002 (ip), vehicle: saline with Tween-80 100 % of control | [7] 90 % of control | [8] 99 % of control

S=C(SCc1c(Cl)cccc1Cl)N1CCSCC1
inactive: [2] 102 % of control | [3] 93 % of control | [4] 96 % of control

Cn1cnc([N+](=O)[O-])c1SCC(=O)O
inactive: [9] 108 % of control | [10] 122 % of control | [11] 96 % of control | [12] 103 % of control

ClCC[N-]CC[N-]CCCl.ClCC[N-]CC[N-]CCCl.[O-][Cl+3]([O-])([O-])O.[Zn+2]
inactive: dose: 5.0 mg/kg/injection, schedule: Q04DX003 (ip), vehicle: saline with Tween-80 102 % of control | dose: 10.0 mg/kg/injection, schedule: Q04DX003 (ip), vehicle: saline with Tween-80 111 % of control

COc1cccc(-c2nsc(=O)o2)c1
inactive: [10] 108 % of control | [11] 109 % of control

COC(=O)c1c[nH]c(=O)[nH]c1=O
inactive: [2] 94 % of control | [3] 105 % of control | [4] 112 % of control

CCN(CC)CC.CCOc1ccc(NC(=O)N=C=[N-])cc1.[CH-]1CCCCC1.[CH-]1CCCCC1.[CH-]1CCCCC1.[Cl-].[Sn+4]
inactive: dose: 6.0 mg/kg/injection, schedule: Q01DX005 (ip), vehicle: Klucel (hydroxypropylcellulose) (HPC) 101 % of control | dose: 12.0 mg/kg/injection, schedule: Q01DX005 (ip), vehicle: Klucel (hydroxypropylcellulose) (HPC) 89 % of control

O=C1c2ccccc2C(=O)c2c1cccc2N1CCOCC1
inactive: [9] 99 % of control and 100 % of control | [10] 101 % of control | [11] 103 % of control and 94 % of control

COC1=CC(=O)c2c(O)c3c(c(O)c2C1=O)OC1(Oc2c(cc4cc(C)oc(=O)c4c2O)CC1O)C3O (centres undefined)
inactive: dose: 3.0 mg/kg/injection, schedule: Q01DX009 (ip), vehicle: Klucel (hydroxypropylcellulose) (HPC) 100 % of control | dose: 6.0 mg/kg/injection, schedule: Q01DX009 (ip), vehicle: Klucel (hydroxypropylcellulose) (HPC) 117 % of control | dose: 12.0 mg/kg/injection, schedule: Q01DX009 (ip), vehicle: Klucel (hydroxypropylcellulose) (HPC) 99 % of control | dose: 24.0 mg/kg/injection, schedule: Q01DX009 (ip), vehicle: Klucel (hydroxypropylcellulose) (HPC) 99 % of control

CC(=O)ON=C1C=CC(=C(C#N)c2ccccc2)C=C1
inactive: [13] 104 % of control | [14] 122 % of control

CC(=O)/C=C/c1ccccc1
inactive: [1] 103 % of control | [9] 101 % of control | [10] 101 % of control | [14] 108 % of control | [11] 103 % of control | [15] 109 % of control | dose: 400.0 mg/kg/injection, schedule: Q01DX009 (ip), vehicle: saline with Tween-80 119 % of control | dose: 600.0 mg/kg/injection, schedule: Q01DX009 (ip), vehicle: saline with Tween-80 117 % of control

CCCCCCCCC(=O)OCCN(CCOC(=O)CCCCCCCC)C(=O)COC(=O)CCCCCCCC
inactive: [9] 102 % of control | [10] 113 % of control | [11] 93 % of control

COc1cccc2c1C(=O)c1c(O)c(CCl)cc(O)c1C2=O
inactive: dose: 3.75 mg/kg/injection, schedule: Q01DX005 (ip), vehicle: saline with Tween-80 99 % of control | [16] 92 % of control | [17] 89 % of control

CC(C)C(NC(=O)C(Cc1ccccc1)NC(=O)OCc1ccccc1)C(=O)OCc1ccccc1 (stereo not drawn) (Cbz-Phe-Val-OBn; configuration not given here)
inactive: dose: 12.5 mg/kg/injection, schedule: Q01DX005 (ip), vehicle: saline with Tween-80 93 % of control | dose: 25.0 mg/kg/injection, schedule: Q01DX005 (ip), vehicle: saline with Tween-80 100 % of control | [5] 91 % of control and 97 % of control | [6] 92 % of control

O=c1c2[nH]c3ccccc3sc=2c(=O)c2ccccc12
inactive: [13] 90 % of control | [14] 91 % of control | [15] 106 % of control

O=S(=O)(NCCSSCCNS(=O)(=O)c1cccs1)c1cccs1
inactive: [9] 88 % of control | [10] 92 % of control | [11] 100 % of control

O=C(O)CCc1ccccc1Br
inactive: [7] 101 % of control | [8] 95 % of control | [18] 100 % of control

CCCCCCOC(=O)CC1CC(C(C)=O)C1(C)C (centres undefined)
inactive: [9] 94 % of control | [10] 106 % of control | [11] 109 % of control | [12] 117 % of control

O=C(NNc1ncccn1)c1ccc(C(=O)NNc2ncccn2)cc1
inactive: [16] 94 % of control | [17] 93 % of control

O=C(OC1CC2CCC1C2)c1cc([N+](=O)[O-])cc([N+](=O)[O-])c1 (centres undefined)
inactive: [13] 107 % of control | [14] 100 % of control | [7] 108 % of control | [15] 90 % of control | [8] 105 % of control | [18] 100 % of control

CCCCN(CCCC)C(Cl)=Nc1ccccc1
inactive: [1] 119 % of control | [9] 120 % of control | [10] 112 % of control

CC1(C)OC(=O)C(Cc2ccco2)C(=O)O1
inactive: [7] 97 % of control | [8] 106 % of control | [18] 101 % of control

CC(C)=CCC(OC(=O)C=C(C)C)c1cc(O)c2c(O)ccc(O)c2c1O.[Mn] (centres undefined)
inactive: dose: 25.0 mg/kg/injection, schedule: Q01DX001 (ip), vehicle: saline with Tween-80 111 % of control | dose: 50.0 mg/kg/injection, schedule: Q01DX001 (ip), vehicle: saline with Tween-80 108 % of control | dose: 100.0 mg/kg/injection, schedule: Q01DX001 (ip), vehicle: saline with Tween-80 111 % of control and 124 % of control | dose: 200.0 mg/kg/injection, schedule: Q01DX001 (ip), vehicle: saline with Tween-80 124 % of control

O=C(NO)c1cccc2ccccc12
inactive: dose: 50.0 mg/kg/injection, schedule: Q01DX005 (ip), vehicle: Klucel (hydroxypropylcellulose) (HPC) 106 % of control | dose: 100.0 mg/kg/injection, schedule: Q01DX005 (ip), vehicle: Klucel (hydroxypropylcellulose) (HPC) 106 % of control | dose: 200.0 mg/kg/injection, schedule: Q01DX005 (ip), vehicle: Klucel (hydroxypropylcellulose) (HPC) 113 % of control

COc1ccc(C2CC(CO)ON2c2ccccc2)cc1 (centres undefined)
inactive: [2] 98 % of control | [3] 98 % of control | [4] 99 % of control
